Reference: EP0907648B1, “QUINOLONE CARBOXYLIC ACIDS SUBSTITUTED BY 7-(3-VINYL-1,4-PIPERAZINE-1-YL)” (BAYER AG, priority 1996, dated 1998)
≈ marks a conversion by molar mass, not a printed value. Where a name gives a salt, the structure may show the parent alone. Read-outs that look alike come from different tables or passages of the source.

Tests used:
[1] = system: E. coli; experiment: MIC (MHK), agar serial dilution on Iso-Sensitest agar; assay type: cell-based; settings: for MIC: Escherichia coli, 20 h, read-out: MHK-Werte
Excerpt: (§1) Die minimalen Hemmkonzentrationen (MHK) der erfindungsgemäßen Verbindungen wurden per Reihenverdünnungsverfahren auf Iso-Sensitest Agar (Oxoid) bestimmt. Für jede Prüfsubstanz wurde eine Reihe von Agarplatten hergestellt, die bei jeweils doppelter Verdünnung abfallende Konzentrationen des Wirkstoffs enthielten. Die Agarplatten wurden mit einem Multipoint-Inokulator (Denley) beimpft. Zum Beimpfen wurden Übernachtkulturen der Erreger verwandt, die zuvor so verdünnt wurden, daß jeder Impfpunkt ca. 10^4 koloniebildende Partikel enthielt. Die beimpften Agarplatten wurden bei 37°C bebrütet, und das Keimwachstum wurde nach ca. 20 Stunden abgelesen. Der MHK-Wert (µg/ml) gibt die niedrigste Wirkstoffkonzentration an, bei der mit bloßem Auge kein Wachstum zu erkennen war. Die Erfassung der MHK-Werte für Mycoplasmen erfolgte mikroskopisch nach einer Inkubationszeit von 5 bis 7 Tagen.

[2] = system: Salmonella spp.; experiment: as above; assay type: cell-based; settings: for MIC: 20 h, Salmonella spp. S 9656, read-out: MHK-Werte; for MHK-Werte: Salmonella spp. S 9657
Excerpt: as §1

[3] = system: Staph. spp.; experiment: as above; assay type: cell-based; settings: for MIC: 20 h, read-out: MHK-Werte
[4] = system: Bordetella; experiment: as above; assay type: cell-based; settings: Bordetella 9213 GE; for MIC: 20 h, read-out: MHK-Werte
[5] = system: B. bronchiseptica; experiment: as above; assay type: cell-based; settings: for MIC: Bordetella bronchiseptica, 20 h, B. bronchiseptica B 9601, read-out: MHK-Werte
[6] = system: Pseudomonas spp.; experiment: as above; assay type: cell-based; settings: 20 h; Pseudomonas spp. P 9510; read-out: MHK-Werte
[7] = system: S. agalactiae; experiment: as above; assay type: cell-based
[8] = system: S. suis; experiment: as above; assay type: cell-based; settings: Streptococcus suis, 20 h, read-out: MHK-Werte
[9] = system: M. agalactiae PG 2; experiment: MIC (MHK) against mycoplasmas, microscopic reading; assay type: cell-based; settings: Mycoplasmopsis agalactiae, PG2, incubation 5 to 7 days, read-out: MHK-Werte gegen Mycoplasmen
[10] = system: M. bovis "Donetta"; experiment: microbe, parasite or virus in culture; assay type: cell-based; settings: read-out: MHK-Werte gegen Mycoplasmen
[11] = system: M. bovirhinis PG 43; experiment: MIC (MHK) against mycoplasmas, microscopic reading; assay type: cell-based; settings: incubation 5 to 7 days, read-out: MHK-Werte gegen Mycoplasmen
[12] = system: M. gallisepticum PG 31; experiment: MIC (MHK) against mycoplasmas, microscopic reading; assay type: cell-based; settings: Mycoplasmoides gallisepticum, PG31, incubation 5 to 7 days, read-out: MHK-Werte gegen Mycoplasmen
[13] = system: M. iowae 695; experiment: MIC (MHK) against mycoplasmas, microscopic reading; assay type: cell-based; settings: incubation 5 to 7 days, read-out: MHK-Werte gegen Mycoplasmen
[14] = system: E.-coli-Stammes 6200 Serovar 078; experiment: In vivo antibacterial efficacy in E. coli infected chicks (mortality); parameters: species or system Hühner-Küken; settings: Escherichia coli; chicks infected intrathoracally, oral dose immediately after infection, mortality 48 h after infection
Excerpt: Die antibakterielle Wirksamkeit der erfindungsgemäßen Verbindung in-vivo wurde folgendermaßen bestimmt. Zwei bis […] (Lohmann-Hybriden, Fa. Lohmann, Cuxhaven) wurden mit 5 x 10^6 KBE/ml des E.-coli-Stammes 6200 Serovar 078 (Prof. Hinz, Hannover) intrathorakal infiziert. Unmittelbar nach der Infektion erhielten jeweils Gruppen von 10 bis 20 Küken den Wirkstoff oral appliziert. Ausgetestet wurden 6 Verdünnungen einer geometrischen Verdünnungsreihe. Die Auswertung erfolgte durch […] 48 Stunden nach der Infektion. Die Wirksamkeit der betreffenden Verbindung wird als ED90 in mg/kg angegeben.

Structure (SMILES): C=CC1CN(c2c(F)cc3c(=O)c(C(=O)O)cn(C4CC4)c3c2Cl)CCN1 (centres unmarked) [Bsp. 1, 8-Chlor-1-cyclopropyl-6-fluor-1,4-dihydro-4-oxo-7-(3-vinyl-1,4-piperazin-1-yl)-3-chinolincarbonsäure]
- MIC ([1]; E. coli 21 Bui): 8 µg/mL (≈ 20.4 µM)
- MIC ([1]; E. coli 3614 GE): 4 µg/mL (≈ 10.2 µM)
- MIC ([1]; E. coli 9430 LH): 16 µg/mL (≈ 40.8 µM)
- MIC ([1]; E. coli Ec 9675): 1 µg/mL (≈ 2.55 µM)
- MIC ([1]; E. coli G 293 LH): 8 µg/mL (≈ 20.4 µM)
- MIC [2]: 0.5 µg/mL (≈ 1.28 µM)
- MHK-Werte [2]: 0,5 µl/ml
- MIC ([3]; Staph. spp. 2706): 0.06 µg/mL (≈ 0.153 µM)
- MIC ([3]; Staph. spp. 3781 GE): 1 µg/mL (≈ 2.55 µM)
- MIC ([3]; Staph. spp. B 5520 TGD): 1 µg/mL (≈ 2.55 µM)
- MIC ([3]; Staph. spp. G 600 LH): 1 µg/mL (≈ 2.55 µM)
- MIC [4]: 8 µg/mL (≈ 20.4 µM)
- MHK-Werte ([5]; B. bronchiseptica B 9610): 0,25 µl/ml
- MHK-Werte ([5]; B. bronchiseptica B 9613): 0,25 µl/ml
- MHK-Werte ([5]; B. bronchiseptica B 9618): 0,25 µl/ml
- MIC [5]: 0.25 µg/mL (≈ 0.638 µM)
- MIC [6]: 0.5 µg/mL (≈ 1.28 µM)
- MHK-Werte ([7]; S. agalactiae Scc 9514): 0,5 µl/ml
- MHK-Werte ([7]; S. agalactiae Scc 9515): 0,5 µl/ml
- MHK-Werte ([7]; S. agalactiae Scc 9520): 0,5 µl/ml
- MHK-Werte ([7]; S. agalactiae Scc 9524): 0,5 µl/ml
- MIC ([7]; Streptococcus agalactiae, 20 h, S. agalactiae Scc 9513, read-out: MHK-Werte): 0.5 µg/mL (≈ 1.28 µM)
- MIC ([8]; S. suis Scc 9588): 0.06 µg/mL (≈ 0.153 µM)
- MIC ([8]; S. suis Scc 9591): 0.03 µg/mL (≈ 0.0766 µM)
- MIC ([8]; S. suis Scc 9592): 0.25 µg/mL (≈ 0.638 µM)
- MIC ([8]; S. suis Scc 9595): 0.03 µg/mL (≈ 0.0766 µM)
- MIC ([8]; S. suis Scc 9603): 0.03 µg/mL (≈ 0.0766 µM)
- MIC [9]: 0.06 µg/mL (≈ 0.153 µM)
- MIC [10]: 0.06 µg/mL (≈ 0.153 µM)
- MIC [11]: 0.06 µg/mL (≈ 0.153 µM)
- MIC [12]: 0.03 µg/mL (≈ 0.0766 µM)
- MIC [13]: 0.03 µg/mL (≈ 0.0766 µM)
- ED90 [14]: 1.25 mg/kg

Structure (SMILES): C=CC1CN(c2c(F)c(N)c3c(=O)c(C(=O)O)cn(C4CC4)c3c2F)CCN1 (centres unmarked) [Bsp. 4, 5-Amino-1-cyclopropyl-6,8-difluor-1,4-dihydro-4-oxo-7-(3-vinyl-1,4-piperazin-1-yl)-chinolincarbonsäure]
- MIC ([1]; E. coli 21 Bui): 16 µg/mL (≈ 41 µM)
- MIC ([1]; E. coli 3614 GE): 16 µg/mL (≈ 41 µM)
- MIC ([1]; E. coli 9430 LH): 64 µg/mL (≈ 164 µM)
- MIC ([1]; E. coli Ec 9675): 0.5 µg/mL (≈ 1.28 µM)
- MIC ([1]; E. coli G 293 LH): 32 µg/mL (≈ 82 µM)
- MIC [2]: 0.5 µg/mL (≈ 1.28 µM)
- MHK-Werte [2]: 0,5 µl/ml
- MIC ([3]; Staph. spp. 3781 GE): 4 µg/mL (≈ 10.2 µM)
- MIC ([3]; Staph. spp. B 5520 TGD): 4 µg/mL (≈ 10.2 µM)
- MIC ([3]; Staph. spp. G 600 LH): 4 µg/mL (≈ 10.2 µM)
- MIC ([3]; Staph. spp. ST 9640): 0.06 µg/mL (≈ 0.154 µM)
- MHK-Werte ([5]; B. bronchiseptica B 9610): 0,25 µl/ml
- MHK-Werte ([5]; B. bronchiseptica B 9613): 0,25 µl/ml
- MHK-Werte ([5]; B. bronchiseptica B 9618): 0,25 µl/ml
- MIC [5]: 0.25 µg/mL (≈ 0.64 µM)
- MIC [9]: 0.03 µg/mL (≈ 0.0768 µM)
- MIC [11]: 0.25 µg/mL (≈ 0.64 µM)
- MIC [12]: 0.03 µg/mL (≈ 0.0768 µM)
- MIC [13]: 0.06 µg/mL (≈ 0.154 µM)

Structure (SMILES): C=CC1CN(c2c(F)cc3c(=O)c(C(=O)O)cn(C4CC4)c3c2Cl)CCN1 (centres unmarked) [Bsp. 2, 8-Chlor-1-cyclopropyl-6-fluor-1,4-dihydro-4-oxo-7-(3-vinyl-1,4-piperazin-1-yl)-3-chinolincarbonsäure-Hydrochlorid]
- MHK-Werte ([1]; E. coli 21 Bui): 4 µl/ml
- MHK-Werte ([1]; E. coli 3614 GE): 4 µl/ml
- MHK-Werte ([1]; E. coli 9430 LH): 16 µl/ml
- MHK-Werte ([1]; E. coli G 293 LH): 4 µl/ml
- MHK-Werte ([3]; Staph. spp. 3781 GE): 1 µl/ml
- MHK-Werte [4]: 8 µl/ml

Structure (SMILES): C=CC1CN(c2c(F)cc3c(=O)c(C(=O)O)cn(C4CC4)c3c2Cl)CCN1/C=C/C(=O)OCC (centres unmarked) [Bsp. 3, 8-Chlor-1-cyclopropyl-7-[4-(2-ethoxycarbonyl-vinyl)-3-vinyl-1,4-piperazin-1-yl]-6-fluor-1,4-dihydro-4-oxo-3-chinolincarbonsäure]
- MIC ([1]; E. coli 21 Bui): 8 µg/mL (≈ 16.3 µM)
- MIC ([1]; E. coli 3614 GE): 8 µg/mL (≈ 16.3 µM)
- MIC ([1]; E. coli 9430 LH): 32 µg/mL (≈ 65.3 µM)
- MIC ([1]; E. coli G 293 LH): 16 µg/mL (≈ 32.7 µM)
- MIC ([3]; Staph. spp. 2706): 0.25 µg/mL (≈ 0.51 µM)
- MIC ([3]; Staph. spp. 3781 GE): 2 µg/mL (≈ 4.08 µM)
- MIC ([3]; Staph. spp. B 5520 TGD): 2 µg/mL (≈ 4.08 µM)
- MIC ([3]; Staph. spp. G 600 LH): 2 µg/mL (≈ 4.08 µM)
- MIC [4]: 16 µg/mL (≈ 32.7 µM)

Structure (SMILES): C=CC1CN(c2cc3c(cc2F)c(=O)c(C(=O)O)cn3C2CC2)CCN1 (centres unmarked) [Bsp. 102 aus EP-A 230 053, 1-Cyclopropyl-6-fluor-1,4-dihydro-4-oxo-7-(3-vinyl-1,4-piperazin-1-yl)-3-chinoloncarbonsäure, reference compound]
- ED90 [14]: 5 to 10 mg/kg
